The target in one test is T1, Kif18A (Homo sapiens, UniProt Q8NI77).
T1 sequence (Q8NI77 1-898): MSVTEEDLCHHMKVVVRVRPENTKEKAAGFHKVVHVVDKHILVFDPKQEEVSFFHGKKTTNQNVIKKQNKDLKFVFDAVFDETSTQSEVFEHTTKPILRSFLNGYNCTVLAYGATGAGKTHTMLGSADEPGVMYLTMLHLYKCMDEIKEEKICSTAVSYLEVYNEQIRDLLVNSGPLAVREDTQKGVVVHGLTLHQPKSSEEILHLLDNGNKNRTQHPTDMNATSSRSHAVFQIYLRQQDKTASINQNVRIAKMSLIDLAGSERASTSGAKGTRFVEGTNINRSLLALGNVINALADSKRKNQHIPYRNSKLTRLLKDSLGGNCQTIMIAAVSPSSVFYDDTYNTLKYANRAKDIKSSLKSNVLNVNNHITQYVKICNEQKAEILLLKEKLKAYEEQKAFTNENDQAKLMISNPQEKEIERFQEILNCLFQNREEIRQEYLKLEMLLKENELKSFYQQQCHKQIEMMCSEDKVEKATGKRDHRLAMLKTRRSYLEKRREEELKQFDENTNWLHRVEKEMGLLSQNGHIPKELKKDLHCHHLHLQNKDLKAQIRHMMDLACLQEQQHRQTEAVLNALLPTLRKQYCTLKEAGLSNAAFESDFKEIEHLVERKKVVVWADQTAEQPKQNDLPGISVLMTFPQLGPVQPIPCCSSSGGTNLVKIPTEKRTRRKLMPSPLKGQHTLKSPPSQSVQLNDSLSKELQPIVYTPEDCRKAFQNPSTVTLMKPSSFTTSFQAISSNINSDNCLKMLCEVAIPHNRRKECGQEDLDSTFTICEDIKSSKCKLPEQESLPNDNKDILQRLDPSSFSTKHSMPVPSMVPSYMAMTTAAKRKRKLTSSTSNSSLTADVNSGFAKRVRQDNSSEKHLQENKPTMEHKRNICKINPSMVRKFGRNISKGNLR
Briefly: KIF18A assay (ADP Glo). The conditions noted are these: biochemical assay, ADP Glo luminescence. Here is the method:
The KIF18A assay was performed as follows:
1.1. Prepared 1× Kinase Buffer
• a) Added 40 μL test compound to 384-well dilution plate • b) Diluted compound 1:3 in succession in DMSO for each column for 10 pts • c) Transferred 0.1 μL diluted compound solution to 384 assay plate using Echo, each column containing 2 replicates • d) Added 5 μL enzyme working solution to 384-well assay plate, centrifuge 1000 RPM for 1 min e) Incubated at 25° C. for 15 min • f) Added 5 μL ATP working solution to initiate reaction • g) Incubated at 25° C. for 60 min • h) Added 10 μL ADP Glo reagent, centrifuge 1000 RPM for 1 min • i) Incubated at 25° C. for 60 min • j) Added 20 μL kinase detection reagent, centrifuge 1000 RPM for 1 min • k) Incubated at 25° C. for 60 min • l) Read Luminescence Signal on Envision 2104 plate reader.
1.3. Data Analysis—Calculated IC50 and Plot Dose-Response Curve of Compounds:
Calculated IC50 by fitting % Inhibition values and log of compound concentrations to nonlinear regression (dose response−variable slope) with GraphPad 6.0.
[formula] • X: log of inhibitor concentration; Y: % Inhibition

The test system of the next test is OVCAR-3. Briefly: OVCAR3 CTG assay. The conditions noted are these: Homo sapiens, OVCAR-3, 144 h; CellTiter-Glo, 6 days incubation. In kind it is cell-based. In a few lines:
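OVCAR-3 cells plated overnight, then exposed to test compounds for 6 days at 37 °C, 5% CO2; 2 mM DMSO working stock diluted 200-fold overall, staurosporine as control. Viability read by CellTiter-Glo luminescence after 10 min lysis and 10 min room-temperature stabilisation.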

Structures are written as SMILES.

On to `COC1CNc2nc(C)cc(n2)NC(=O)c2ccc(NS(=O)(=O)CCO)cc2N2CCC(C)(CC2)COC1` (centres unmarked) [EX31], for which the IC50 against Kif18A and in the test with OVCAR-3 was 10 to 100 nM in each case.
As for `Cc1cc2nc(n1)N(C)C[C@H](C)COCC1(C)CCN(CC1)c1cc(NS(=O)(=O)CCO)ccc1C(=O)N2` [EX33-A], the IC50 at Kif18A was in the range of 10 to 100 nM; in the test on OVCAR-3, 100 to 1000 nM.
For `Cc1cc2nc(n1)N(C)C[C@@H](C)COCC1(C)CCN(CC1)c1cc(NS(=O)(=O)CCO)ccc1C(=O)N2` [EX33-B] the same measures were 10 to 100 nM and 1000 to 10000 nM.
For `Cc1cc2nc(n1)NCCCCCC1(C)CCN(CC1)c1cc(NS(=O)(=O)CCO)ccc1C(=O)N2` [EX34] the same measures were under 10 nM and under 10 nM.
In the same order, the values of `Cc1cc2nc(n1)N(C)CC(C)COCC1(C(F)(F)F)CCN(CC1)c1cc(NS(=O)(=O)CCO)ccc1C(=O)N2` (centres unmarked) [EX35] are 10 to 100 nM and 100 to 1000 nM.
Take `Cc1cc2nc(n1)NC[C@H](C)COCC1(C(F)(F)F)CCN(CC1)c1cc(NS(=O)(=O)CCO)ccc1C(=O)N2` [EX36-A]: the IC50 against Kif18A and with OVCAR-3 was 10 to 100 nM throughout.
As to `Cc1cc2nc(n1)NC[C@@H](C)COCC1(C(F)(F)F)CCN(CC1)c1cc(NS(=O)(=O)CCO)ccc1C(=O)N2` [EX36-B], the values for the IC50 against Kif18A and in the test with OVCAR-3 were 10 to 100 nM and under 10 nM, respectively.
For `Cc1cc2nc(n1)NCCCCC1(C)CCN(CC1)c1cc(NS(=O)(=O)CCO)ccc1C(=O)N2` [EX37] the same measures were under 10 nM and 10 to 100 nM.
As for `Cc1cc2nc(n1)NCCC(C)OCC1(C)CCN(CC1)c1cc(NS(=O)(=O)CCO)ccc1C(=O)N2` (centres unmarked) [EX38], the IC50 at Kif18A and in the test on OVCAR-3 was 10 to 100 nM in each case.
Regarding `Cc1cc2nc(n1)N(C1CC1)CCCOCC1(C(F)(F)F)CCN(CC1)c1cc(NS(=O)(=O)CCO)ccc1C(=O)N2` [EX45], the values for the half-maximal inhibitory concentration (IC50) against Kif18A and in the test with OVCAR-3 were 10 to 100 nM and 100 to 1000 nM, respectively.
Regarding `[2H]C([2H])([2H])N1CCCOCC2(C(F)(F)F)CCN(CC2)c2cc(NS(=O)(=O)CCO)ccc2C(=O)Nc2cccc1n2` [EX48], the IC50 at Kif18A and in the test on OVCAR-3 was 10 to 100 nM throughout.
Take `O=C1Nc2ccc(=O)n(n2)CCCCOCC2(C(F)(F)F)CCN(CC2)c2cc(NS(=O)(=O)CCO)ccc21` [EX50]: the IC50 against Kif18A and with OVCAR-3 was 10 to 100 nM throughout.
Regarding `Cc1cc2nc(n1)NCC(C)COCC1(C(F)(F)F)CCN(CC1)c1nc(NC(C)(C)CO)ccc1C(=O)N2` (centres unmarked) [EX55], the IC50 at Kif18A and with OVCAR-3 was 10 to 100 nM throughout.
Take `C[C@H]1CNc2cccc(n2)NC(=O)c2ccc(NS(=O)(=O)CCO)cc2N2CCC(C(F)(F)F)(CC2)COC1` [EX56-A]: the IC50 on Kif18A was under 10 nM; with OVCAR-3 it was 10 to 100 nM.
In the same order, the values of `C[C@@H]1CNc2cccc(n2)NC(=O)c2ccc(NS(=O)(=O)CCO)cc2N2CCC(C(F)(F)F)(CC2)COC1` [EX56-B] are under 10 nM and under 10 nM.
For `CC1CNc2cc(ccn2)NC(=O)c2ccc(NS(=O)(=O)CCO)cc2N2CCC(C(F)(F)F)(CC2)COC1` (centres unmarked) [EX57], the IC50 at Kif18A and in the test with OVCAR-3 was 10 to 100 nM throughout.
Consider `[2H]C([2H])([2H])N1CCCOCC2(C(F)(F)F)CCN(CC2)c2cc(NS(=O)(=O)CCO)ccc2C(=O)Nc2ccnc1c2` [EX58], for which the IC50 at Kif18A and with OVCAR-3 was 10 to 100 nM each time.
Consider `Cc1cc2nc(n1)NCCCCOCC1(C(F)(F)F)CCN(CC1)c1cc(NS(=O)(=O)CCO)ccc1C(=O)N2` [EX59], for which the IC50 against Kif18A and with OVCAR-3 was 10 to 100 nM throughout.
Consider `[2H]C([2H])([2H])N1CCCOCC2(C(F)(F)F)CCN(CC2)c2cc(NS(=O)(=O)CCO)ccc2C(=O)Nc2cc(C)cc1n2` [EX67], for which the IC50 was 10 to 100 nM at Kif18A and 100 to 1000 nM in the test on OVCAR-3.
In the same order, the values of `CN1CCCOCC2(C(F)(F)F)CCN(CC2)c2nc(NS(=O)(=O)CCO)ccc2C(=O)Nc2cccc1n2` [EX72] are under 10 nM and 100 to 1000 nM.
For `CN1CCCOCC2(C(F)(F)F)CCN(CC2)c2cc(NS(=O)(=O)CCO)ccc2C(=O)Nc2ccc(C#N)c1n2` [EX73] the same measures were 10 to 100 nM and 10 to 100 nM.
For `CN1CCCOCC2(C(F)(F)F)CCN(CC2)c2cc(NS(=O)(=O)CCO)ccc2C(=O)Nc2ccnc1n2` [EX74] the same measures were under 10 nM and 10 to 100 nM.
For the compound `O=C1Nc2cccc(n2)N2CCO[C@@H](COCC3(C(F)(F)F)CCN(CC3)c3cc(NS(=O)(=O)CCO)ccc31)C2` [EX81-A], the IC50 was 10 to 100 nM against Kif18A and under 10 nM in the test with OVCAR-3.
As to `CN1CCCOCC2(C(F)(F)F)CCN(CC2)c2cc(NS(=O)(=O)CCO)ncc2C(=O)Nc2cccc1n2` [EX82], the IC50 at Kif18A and in the test with OVCAR-3 was 10 to 100 nM throughout.
Turning to `C[C@@H]1CCCC2(C(F)F)CCN(CC2)c2cc(NS(=O)(=O)CCO)ccc2C(=O)Nc2cccc(n2)NC1` [EX102-A], the IC50 on Kif18A is under 10 nM; with OVCAR-3, 10 to 100 nM.
In the same order, the values of `Cc1cc2nc(n1)N1CCOC(COCC3(C(F)(F)F)CCN(CC3)c3cc(NS(=O)(=O)CCO)c(F)cc3C(=O)N2)C1` (centres unmarked) [EX112] are under 10 nM and under 10 nM.
`Cc1cc2nc(n1)N1CCO[C@H](COCC3(C(F)F)CCN(CC3)c3cc(NS(=O)(=O)CCO)ccc3C(=O)N2)C1` [EX113-A]: the IC50 against Kif18A was 10 to 100 nM; with OVCAR-3, under 10 nM.
In the same order, the values of `Cc1cc2nc(n1)N1CCC(F)(F)[C@@H](CCCC3(C)CCN(CC3)c3cc(NS(=O)(=O)CCO)ccc3C(=O)N2)C1` [EX115-B] are 10 to 100 nM and 10 to 100 nM.
